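A five-concentration, 48-hour dose response in 96-well plates underlies each endpoint, interpolated linearly between surrounding concentrations. GI50: concentration for 50% inhibition of growth.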 Calls of active or inactive are those of the source. Rule as the data show it: active = GI50 up to about 1.1 µM and inactive = higher.
Assays:
Assay in all cases: NCI tumour cell line growth inhibition, 48 h
[1] = tested on: MDA-N
[2] = tested on: NCI-H460
[3] = tested on: UACC-257
[4] = tested on: UO-31
[5] = tested on: NCI/ADR-RES
[6] = tested on: SW-620
[7] = tested on: SK-MEL-2
[8] = tested on: M14
[9] = tested on: T47D
[10] = tested on: HL-60
[11] = tested on: EKVX
[12] = tested on: Hs-578T
[13] = tested on: SK-MEL-28
[14] = tested on: SNB-19
[15] = tested on: A549
[16] = tested on: ACHN
[17] = tested on: SK-MEL-5
[18] = tested on: OVCAR-4
[19] = tested on: SR
[20] = tested on: PC-3
[21] = tested on: SK-OV-3
[22] = tested on: COLO 205
[23] = tested on: MCF7
[24] = tested on: HOP-92
[25] = tested on: UACC-62
[26] = tested on: MDA-MB-231
[27] = tested on: A498
[28] = tested on: SN12C
[29] = tested on: SF-295
[30] = tested on: LOX IMVI
[31] = tested on: TK-10
[32] = tested on: HCT-15
[33] = tested on: HT-29
[34] = tested on: CAKI-1
[35] = tested on: HOP-62
[36] = tested on: MDA-MB-435
[37] = tested on: KM12
[38] = tested on: HCT-116
[39] = tested on: HCC 2998
[40] = tested on: BT-549
[41] = tested on: NCI-H522
[42] = tested on: OVCAR-3
[43] = tested on: SF-539
[44] = tested on: CCRF-CEM
[45] = tested on: 786-0
[46] = tested on: NCI-H226
[47] = tested on: NCI-H23
[48] = tested on: OVCAR-5
[49] = tested on: SF-268
[50] = tested on: OVCAR-8
[51] = tested on: IGROV-1
[52] = tested on: MOLT-4
[53] = tested on: RXF 393
[54] = tested on: K562
[55] = tested on: SNB-75
[56] = tested on: U-251
[57] = tested on: DU-145
[58] = tested on: RPMI-8226
[59] = tested on: Malme-3M

CN(Cc1cnc2nc(N)nc(N)c2n1)c1ccc(C(=O)NC(CCS(=O)(=O)O)C(=O)O)cc1 (stereo not drawn)
GI50 [1]: 0.35 µM (active) | GI50 [2]: 0.409 µM (active) | GI50 [3]: > 100 µM (inactive) | GI50 [4]: 2.72 µM (inactive) | GI50 [5]: 2.31 µM (inactive) | GI50 [6]: 0.379 µM (active) | GI50 [7]: > 100 µM (inactive) | GI50 [8]: 0.682 µM (active) | GI50 [9]: > 100 µM (inactive) | GI50 [10]: < 0.0336 µM (active) | GI50 [11]: 1.31 µM (inactive) | GI50 [12]: > 100 µM (inactive) | GI50 [13]: > 100 µM (inactive) | GI50 [14]: 7.16 µM (inactive) | GI50 [15]: 0.421 µM (active) | GI50 [16]: 0.527 µM (active) | GI50 [17]: 1.79 µM (inactive) | GI50 [18]: > 100 µM (inactive) | GI50 [19]: 0.136 µM (active) | GI50 [20]: 0.0665 µM (active) | GI50 [21]: > 100 µM (inactive) | GI50 [22]: > 72.3 µM (inactive) | GI50 [23]: 0.268 µM (active) | GI50 [24]: > 100 µM (inactive) | GI50 [25]: 0.508 µM (active) | GI50 [26]: > 100 µM (inactive) | GI50 [27]: > 100 µM (inactive) | GI50 [28]: 4.57 µM (inactive) | GI50 [29]: 0.681 µM (active) | GI50 [30]: 0.103 µM (active) | GI50 [31]: > 100 µM (inactive) | GI50 [32]: 0.25 µM | GI50 [33]: 4.02 µM (inactive) | GI50 [34]: > 100 µM (inactive) | GI50 [35]: 0.783 µM (active) | GI50 [36]: 0.426 µM (active) | GI50 [37]: 0.661 µM (active) | GI50 [38]: 0.0745 µM (active) | GI50 [39]: 0.916 µM (active) | GI50 [40]: > 100 µM (inactive) | GI50 [41]: 0.527 µM (active) | GI50 [42]: 3.46 µM (inactive) | GI50 [43]: 0.824 µM (active) | GI50 [44]: 0.0312 µM (active) | GI50 [45]: 0.132 µM (active) | GI50 [46]: 15.7 µM (inactive) | GI50 [47]: 1.88 µM (inactive) | GI50 [48]: 0.144 µM (active) | GI50 [49]: 0.465 µM (active) | GI50 [50]: 21.9 µM (inactive) | GI50 [51]: 0.553 µM (active) | GI50 [52]: 0.593 µM (active)

COc1cc([C@@H]2c3cc4c(cc3[C@@H](NCCNCCO)[C@H]3COC(=O)[C@H]23)OCO4)cc(OC)c1O
GI50 [1]: 4.35 µM (inactive) | GI50 [2]: 0.0525 µM (active) | GI50 [3]: 7.85 µM (inactive) | GI50 [4]: 11.6 µM (inactive) | GI50 [5]: > 100 µM (inactive) | GI50 [6]: 2.44 µM (inactive) | GI50 [7]: 2.15 µM (inactive) | GI50 [8]: 3.79 µM (inactive) | GI50 [9]: 0.442 µM (active) | GI50 [12]: 1.89 µM (inactive) | GI50 [13]: 2.14 µM (inactive) | GI50 [14]: 0.857 µM (active) | GI50 [15]: 0.785 µM (active) | GI50 [17]: 1.15 µM (inactive) | GI50 [18]: 18.7 µM (inactive) | GI50 [20]: 2.67 µM (inactive) | GI50 [21]: 1.78 µM (inactive) | GI50 [22]: 2.38 µM (inactive) | GI50 [53]: 1.53 µM (inactive) | GI50 [25]: 0.644 µM (active) | GI50 [31]: 6.59 µM (inactive) | GI50 [32]: 29.5 µM | GI50 [33]: 2.86 µM (inactive) | GI50 [54]: 1.71 µM (inactive) | GI50 [34]: 3.78 µM (inactive) | GI50 [35]: 1.5 µM (inactive) | GI50 [36]: 6.22 µM (inactive) | GI50 [37]: 2.55 µM (inactive) | GI50 [38]: 2.4 µM (inactive) | GI50 [40]: 1.92 µM (inactive) | GI50 [44]: 0.0432 µM (active) | GI50 [45]: 1.09 µM (active) | GI50 [55]: 1.1 µM (active) | GI50 [46]: 1.12 µM (inactive) | GI50 [47]: 1.24 µM (inactive) | GI50 [50]: 2.09 µM (inactive) | GI50 [51]: 1.05 µM (active) | GI50 [52]: 0.016 µM (active) | GI50 [56]: 0.501 µM (active)

Cc1ccc2oc3c(c(Br)c(Br)n3C)c(=O)c2c1
GI50 [57]: 78.9 µM (inactive) | GI50 [3]: 65.5 µM (inactive) | GI50 [4]: 13.9 µM (inactive) | GI50 [5]: 20.4 µM (inactive) | GI50 [6]: > 100 µM (inactive) | GI50 [7]: 25.8 µM (inactive) | GI50 [8]: 31.3 µM (inactive) | GI50 [9]: 41.5 µM (inactive) | GI50 [10]: > 100 µM (inactive) | GI50 [11]: 10.4 µM (inactive) | GI50 [12]: 18.5 µM (inactive) | GI50 [13]: > 100 µM (inactive) | GI50 [14]: 17.8 µM (inactive) | GI50 [15]: 20.5 µM (inactive) | GI50 [16]: 16.7 µM (inactive) | GI50 [17]: 27.7 µM (inactive) | GI50 [18]: 51.5 µM (inactive) | GI50 [20]: 35 µM (inactive) | GI50 [22]: > 100 µM (inactive) | GI50 [58]: > 100 µM (inactive) | GI50 [23]: 90.6 µM (inactive) | GI50 [24]: 18.1 µM (inactive) | GI50 [53]: 16.9 µM (inactive) | GI50 [25]: 19.6 µM (inactive) | GI50 [26]: 20.3 µM (inactive) | GI50 [27]: 20.9 µM (inactive) | GI50 [28]: 18.3 µM (inactive) | GI50 [29]: 20.4 µM (inactive) | GI50 [30]: 31.3 µM (inactive) | GI50 [31]: 19 µM (inactive) | GI50 [32]: > 100 µM | GI50 [33]: 91.8 µM (inactive) | GI50 [54]: > 100 µM (inactive) | GI50 [34]: 28.4 µM (inactive) | GI50 [59]: 24.7 µM (inactive) | GI50 [35]: 17 µM (inactive) | GI50 [36]: > 100 µM (inactive) | GI50 [37]: > 100 µM (inactive) | GI50 [38]: 15.7 µM (inactive) | GI50 [40]: > 100 µM (inactive) | GI50 [41]: 46.2 µM (inactive) | GI50 [42]: 19.6 µM (inactive) | GI50 [43]: 20 µM (inactive) | GI50 [44]: > 100 µM (inactive) | GI50 [45]: 16.7 µM (inactive) | GI50 [46]: 15.6 µM (inactive) | GI50 [47]: 19.5 µM (inactive) | GI50 [48]: 41.6 µM (inactive) | GI50 [49]: 29.4 µM (inactive) | GI50 [50]: 17.4 µM (inactive) | GI50 [51]: 10.5 µM (inactive) | GI50 [52]: > 100 µM (inactive) | GI50 [56]: 18.2 µM (inactive)

CC(=O)OCC1OC(n2nc(Cc3ccccc3)c(=S)[nH]c2=S)C(OC(C)=O)C(OC(C)=O)C1OC(C)=O (stereo not drawn)
GI50 [57]: 25.4 µM (inactive) | GI50 [2]: 69 µM (inactive) | GI50 [3]: 18.7 µM (inactive) | GI50 [4]: 4.9 µM (inactive) | GI50 [5]: > 100 µM (inactive) | GI50 [6]: 30 µM (inactive) | GI50 [7]: 17.7 µM (inactive) | GI50 [8]: 19.4 µM (inactive) | GI50 [9]: 24.3 µM (inactive) | GI50 [10]: 0.583 µM (active) | GI50 [12]: 20.2 µM (inactive) | GI50 [13]: 42.8 µM (inactive) | GI50 [14]: 27.7 µM (inactive) | GI50 [15]: 84.1 µM (inactive) | GI50 [16]: > 100 µM (inactive) | GI50 [17]: 82 µM (inactive) | GI50 [18]: 21.3 µM (inactive) | GI50 [19]: 31.2 µM (inactive) | GI50 [20]: 41.1 µM (inactive) | GI50 [21]: 50.7 µM (inactive) | GI50 [22]: 89.7 µM (inactive) | GI50 [23]: 27.7 µM (inactive) | GI50 [24]: 20.4 µM (inactive) | GI50 [53]: 22.9 µM (inactive) | GI50 [25]: 18.5 µM (inactive) | GI50 [26]: 14.7 µM (inactive) | GI50 [27]: 32.1 µM (inactive) | GI50 [28]: 21.5 µM (inactive) | GI50 [29]: 43.2 µM (inactive) | GI50 [30]: 20.6 µM (inactive) | GI50 [31]: 57.8 µM (inactive) | GI50 [32]: 19.4 µM | GI50 [33]: 41.8 µM (inactive) | GI50 [54]: 26.9 µM (inactive) | GI50 [34]: 30.7 µM (inactive) | GI50 [59]: 31.6 µM (inactive) | GI50 [35]: 22 µM (inactive) | GI50 [36]: 18.1 µM (inactive) | GI50 [37]: 20.5 µM (inactive) | GI50 [38]: 21.3 µM (inactive) | GI50 [40]: 19.6 µM (inactive) | GI50 [41]: 21.4 µM (inactive) | GI50 [42]: 18.7 µM (inactive) | GI50 [43]: 24.9 µM (inactive) | GI50 [45]: 35.2 µM (inactive) | GI50 [55]: 20.6 µM (inactive) | GI50 [46]: 54.1 µM (inactive) | GI50 [47]: 20.3 µM (inactive) | GI50 [48]: > 100 µM (inactive) | GI50 [49]: 21.6 µM (inactive) | GI50 [50]: 23.6 µM (inactive) | GI50 [51]: 25 µM (inactive) | GI50 [52]: 23.2 µM (inactive) | GI50 [56]: 22.1 µM (inactive)

From ChEMBL document CHEMBL1201862, “PubChem BioAssay data set” (2004)
